{"source": "patent US8841482B2", "about": "“Method for synthesizing rare earth metal extractant” (Shin-Etsu Chemical Co., Ltd., priority 2010, dated 2014)", "assay": "extraction/separation performance test (solvent extraction of Pr/Nd, back extraction, ICP atomic emission)", "assay_type": "physicochemical", "details": "aqueous Pr:Nd 1:1, 0.1 mol/L Pr+Nd, 20° C.", "description": "The stoichiometric amount of the reaction product, D2EHDGAA in Example 1 or Comparative Example 1 was diluted with hexanol to form an organic solution having a D2EHDGAA concentration of 0.3 mol/L, which might become an organic phase.\nA mixed rare earth metal aqueous solution was prepared by dissolving praseodymium chloride and neodymium chloride in water in a molar ratio Pr:Nd of 1:1 and a concentration of 0.1 mol/L of Pr+Nd to form an aqueous solution, which might become an aqueous phase. A separatory funnel was charged with 100 mL of the organic solution and 100 mL of the aqueous solution and shaken at 20° C. for about 20 minutes to effect extraction. After equilibrium was reached, the liquid was allowed to separate into organic and aqueous phases. A separatory funnel was charged with 100 mL of the thus separated organic phase and 100 mL of 5N hydrochloric acid and shaken at 20° C. for about 20 minutes whereby the rare earth element once extracted in the organic phase was back extracted in the hydrochloric acid aqueous solution. The concentrations of praseodymium and neodymium in the aqueous phase and the back-extracted hydrochloric acid aqueous solution were measured by an ICP atomic emission spectrometer ICP-7500 (Shimadzu Corp.).\nThe stoichiometric amount of the reaction product, D2EHDGAA in Example 5, 6 or Comparative Example 5, 6 was diluted with toluene to form an organic solution having a D2EHDGAA concentration of 0.3 mol/L, which might become an organic phase."}
{"smiles": "CCCCC(CC)CN(CC(CC)CCCC)C(=O)COCC(=O)O", "note": "(stereo not drawn) [Example 1, N,N-bis(2-ethylhexyl)-3-oxapentane-1,5-amic acid]", "values": [{"measurement": "Nd/Pr separation factor", "setting": "D2EHDGAA 0.3 mol/L in hexanol", "value": 2.5}, {"measurement": "Phase separation", "setting": "D2EHDGAA 0.3 mol/L in hexanol", "value": "definite"}]}
{"smiles": "CCCCCCCCN(CCCCCCCC)C(=O)COCC(=O)O", "note": "[Example 2, N,N-dioctyl-3-oxapentane-1,5-amic acid]", "values": [{"measurement": "Nd/Pr separation factor", "setting": "DODGAA 0.3 mol/L in hexanol", "value": 2.5}, {"measurement": "Phase separation", "setting": "DODGAA 0.3 mol/L in hexanol", "value": "definite"}]}
{"smiles": "CCCCC(CC)CN(CC(CC)CCCC)C(=O)COCC(=O)O", "note": "(stereo not drawn) [Example 3, N,N-bis(2-ethylhexyl)-3-oxapentane-1,5-amic acid]", "values": [{"measurement": "Nd/Pr separation factor", "setting": "D2EHDGAA 0.3 mol/L in kerosene", "value": 2.5}, {"measurement": "Phase separation", "setting": "D2EHDGAA 0.3 mol/L in kerosene", "value": "definite"}]}
{"smiles": "CCCCC(CC)CN(CC(CC)CCCC)C(=O)COCC(=O)O", "note": "(stereo not drawn) [Example 4, N,N-bis(2-ethylhexyl)-3-oxapentane-1,5-amic acid]", "values": [{"measurement": "Nd/Pr separation factor", "setting": "D2EHDGAA 0.3 mol/L in kerosene", "value": 2.5}, {"measurement": "Phase separation", "setting": "D2EHDGAA 0.3 mol/L in kerosene", "value": "definite"}]}
{"smiles": "CCCCC(CC)CN(CC(CC)CCCC)C(=O)COCC(=O)O", "note": "(stereo not drawn) [Example 5, N,N-bis(2-ethylhexyl)-3-oxapentane-1,5-amic acid]", "values": [{"measurement": "Nd/Pr separation factor", "setting": "D2EHDGAA 0.3 mol/L in toluene", "value": 2.5}, {"measurement": "Phase separation", "setting": "D2EHDGAA 0.3 mol/L in toluene", "value": "definite"}]}
{"smiles": "CCCCC(CC)CN(CC(CC)CCCC)C(=O)COCC(=O)O", "note": "(stereo not drawn) [Example 6, N,N-bis(2-ethylhexyl)-3-oxapentane-1,5-amic acid]", "values": [{"measurement": "Nd/Pr separation factor", "setting": "D2EHDGAA 0.3 mol/L in toluene", "value": 2.5}, {"measurement": "Phase separation", "setting": "D2EHDGAA 0.3 mol/L in toluene", "value": "definite"}]}
